Tests used:
Assay type in all cases: cell-based
[1] = system: Proteus mirabilis (PMI) isolates; assay: microbe, parasite or virus in culture; details: alone
How it was run: (§1)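 First, log-phase suspensions are brought to a final 5·10^5 CFU/mL in cation-adjusted Mueller-Hinton broth. Then plates with compound, antibacterial, or both incubate 16-20 h at 35° C under ambient air. Finally, visual inspection gives the lowest growth-preventing concentration for each agent.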

[2] = system: Providencia stuartii (PST) isolates; assay: MIC of compounds alone and combined with antibacterials, broth microdilution (CLSI); details: alone
How it was run: as §1

[3] = system: Citrobacter freundii (CFR) isolates; assay: as above
How it was run: as §1

[4] = system: Morganella morganii (MMO) isolates; assay: as above; details: alone
How it was run: as §1

[5] = system: Klebsiella pneumoniae (KPN) isolates; assay: as above; details: alone
How it was run: as §1

[6] = system: Enterobacter aerogenes (EAE) isolates; assay: as above; details: alone
How it was run: as §1

NC(=O)[C@@H]1CC[C@@H]2CN1C(=O)N2OC(F)(F)C(=O)[O-].[Na+] [EA1]
MIC ([1]; PMI UFR82): >32 µg/mL
MIC ([1]; PMI UFR120): >32 µg/mL
MIC ([1]; PMI UFR121): >32 µg/mL
MIC ([1]; PMI UFR122): >32 µg/mL
MIC ([1]; PMI UFR123): >32 µg/mL
MIC ([1]; PMI UFR124): >32 µg/mL
MIC ([1]; PMI UFR125): >32 µg/mL
MIC ([1]; PMI UFR126): >32 µg/mL
MIC ([1]; PMI UFR127): >32 µg/mL
MIC ([1]; PMI UFR129): >32 µg/mL
MIC ([1]; PMI UFR130): >32 µg/mL
MIC ([1]; PMI UFR237): >32 µg/mL
MIC ([2]; PST UFR94): >32 µg/mL
MIC ([2]; PST UFR95): >32 µg/mL
MIC ([2]; PST UFR235): 16 µg/mL
MIC ([3]; CFR UFR10, alone): >32 µg/mL
MIC ([3]; CFR UFR11, alone): 16 µg/mL
MIC ([3]; CFR UFR83, alone): >32 µg/mL
MIC ([3]; CFR UFR146, alone): 64 µg/mL
MIC ([3]; CFR UFR248, alone): >32 µg/mL
MIC ([3]; CFR UFR249, alone): >32 µg/mL
MIC ([3]; CFR UFR250, alone): >32 µg/mL
MIC ([3]; strain CFR UFR253, compound alone): 32 µg/mL
MIC ([3]; strain CFR UFR254, compound alone): 32 µg/mL
MIC ([4]; MMO 200321): >32 µg/mL
MIC ([4]; MMO UFR144): >32 µg/mL
MIC ([4]; MMO UFR240): >32 µg/mL
MIC ([4]; MMO UFR241): >32 µg/mL
MIC ([4]; MMO UFR242): 128 µg/mL
MIC ([4]; MMO UFR243): >32 µg/mL
MIC ([4]; MMO UFR244): >32 µg/mL
MIC ([4]; MMO UFR245): >32 µg/mL
MIC ([4]; MMO UFR246): >32 µg/mL
MIC ([4]; MMO UFR247): 64 µg/mL
MIC ([5]; KPN 6299): >32 µg/mL
MIC ([5]; KPN 110376): >32 µg/mL
MIC ([5]; KPN 131119): >32 µg/mL
MIC ([5]; KPN 140513): >32 µg/mL
MIC ([5]; KPN 160143): >32 µg/mL
MIC ([5]; KPN 190128): >32 µg/mL
MIC ([5]; KPN 190270): >32 µg/mL
MIC ([5]; KPN 190425): >32 µg/mL
MIC ([5]; KPN 190551): >32 µg/mL
MIC ([5]; KPN 200047): >32 µg/mL
MIC ([5]; KPN 200327): >32 µg/mL
MIC ([5]; KPN 260251): >32 µg/mL
MIC ([5]; KPN 260252): >32 µg/mL
MIC ([5]; KPN 260376): >32 µg/mL
MIC ([5]; KPN 270077): >32 µg/mL
MIC ([5]; KPN 700603): >32 µg/mL
MIC ([5]; KPN ARA): >32 µg/mL
MIC ([5]; KPN BAA-1898): >32 µg/mL
MIC ([5]; KPN LIB): >32 µg/mL
MIC ([5]; KPN UFR22_O): >32 µg/mL
MIC ([5]; KPN UFR23): >32 µg/mL
MIC ([5]; KPN UFR24): >32 µg/mL
MIC ([5]; KPN UFR25): >32 µg/mL
MIC ([5]; KPN UFR27): >32 µg/mL
MIC ([5]; KPN UFR28): >32 µg/mL
MIC ([5]; KPN UFR65): >32 µg/mL
MIC ([5]; KPN UFR66): >32 µg/mL
MIC ([5]; KPN UFR67): >32 µg/mL
MIC ([5]; KPN UFR68): >32 µg/mL
MIC ([5]; KPN UFR76): >32 µg/mL
MIC ([5]; KPN UFR77): >32 µg/mL
MIC ([5]; KPN UFR78): >32 µg/mL
MIC ([5]; KPN UFR79): >32 µg/mL
MIC ([5]; KPN UFR80): >32 µg/mL
MIC ([5]; KPN UFR81): >32 µg/mL
MIC ([5]; KPN UFR215): >32 µg/mL
MIC ([5]; KPN UFR216): >32 µg/mL
MIC ([5]; KPN UFR217): >32 µg/mL
MIC ([5]; KPN UFR219): >32 µg/mL
MIC ([5]; KPN UFR220): >32 µg/mL
MIC ([5]; KPN UFR221): >32 µg/mL
MIC ([5]; KPN UFR222): >32 µg/mL
MIC ([5]; KPN UFR227O): >32 µg/mL
MIC ([6]; EAE 49469): >32 µg/mL
MIC ([6]; EAE 200261): >32 µg/mL
MIC ([6]; EAE UFR199): 128 µg/mL
MIC ([6]; EAE UFR201): >32 µg/mL
MIC ([6]; EAE UFR202): >32 µg/mL
MIC ([6]; EAE UFR213): >32 µg/mL

— US20200017496A1 (priority 2017, published 2020)
